{"source": "patent US20250268873A1", "about": "“COMBINATION OF DUAL ATM AND DNA-PK INHIBITORS AND IMMUNOTHERAPEUTIC AGENTS FOR USE IN CANCER THERAPY” (XRAD THERAPEUTICS, INC., priority 2021, published 2025)", "key": {"A549 cells": {"system": "A549 cells", "assay": "Clonogenic Survival Assay in A549 cells", "format": "cell-based, human", "conditions": "for Fold 2 Gy / Fold 4 Gy: vs DMSO; for % survival @ 0 Gy w/out IR: no IR", "description": "Human cancer cell lines, including MCF-7 human breast carcinoma cell line and A549 human lung carcinoma cell line, and HCT116 p53 wild-type and HCT116 p53−/− cell lines were obtained from ATCC. MCF7 and HCT116 cells were cultured in Dulbecco's modified Eagle's medium (DMEM (Gibco #11995-065). MDA-MB-231 human triple negative breast cancer cell line and FADU, human head and neck squamous cell carcinoma line, were obtained from Charles River Laboratories (Morrisville, NC). MDA-MB-231 and A549 cells were cultured in RPMI 1640 medium (Gibco, 11875-093). FADU cells were cultured in Minimum Essential Medium α (MEM α) (Gibco, 12571-063) supplemented with 1 mM Sodium Pyruvate (Gibco, 11360-070), 1×MEM Non-Essential Amino Acids (Gibco, 11140-050). All cell lines were supplemented with 10% fetal bovine serum (FBS) (Corning, 35-010-CV) and 1× Antibiotic-Antimycotic (Gibco #15240-062) and were grown at 37° C. in 5% CO2. All cell lines were authenticated by short tandem repeat profiling and tested negative for mycoplasma.\nThis assay was performed with Compound 569 as an exemplary Formula (I) compound. Cells were plated in 6-well plates at different densities: 250 cells for no IR control, 5000 cells for 2 Gy of IR and 10000 cells for 4 Gy of IR and cultured overnight. The next day, MCF7 cells were preincubated with compound 569 at 100, 250, 500, or 1000 nM or DMSO for 30 min before being exposed to increasing doses of IR (0, 2, or 4 Gy). The A549 cells were incubated with Compound 569 at 500 or 1000 nM or with DMSO for 30 min before being exposed to increasing doses of IR (0, 2, or 4 Gy). After IR, cells were continuously incubated with DMSO or compound 569 for 5 h before the culture medium was removed and cells were washed with PBS. Cells were cultured in complete medium in the absence of inhibitor for 9 days. Then cells were stained (PBS, […], 0.1% crystal violet) rinsed with water and dried."}, "TBK1": {"system": "TBK1", "assay": "Immunoblot of TBK1 phosphorylation in HCT116 cells", "format": "cell-based, human", "conditions": "HCT116 p53 wild-type and p53−/− cells; 1 μM single agents, combination 0.5 or 1 micromolar each", "source_text": "Antibodies recognizing phosphorylated/activated ATM (S1981, #ab81292) and DNA-PKcs (S2056, #ab18192) were purchased from Abcam Biotechnology (Cambridge, MA). Antibodies to ATM (#A1106) and DNA-PKcs (#ab1832) were from Sigma and Abcam, respectively. Phospho-KAP1 (S824, #A300-767A) and KAP1 (A700-014) antibodies were from Bethyl Labs (Montgomery, TX). Phospho-TBK1 (#5483), cGAS (#15102), and pSTING (S366, #19781S) antibodies were from Cell Signaling Technology (CST) (Danvers, MA). STING (PA5-23381) antibodies were from ThermoFisher Scientific (Waltham, MA), and actin (#A5316) antibodies were from Sigma. All antibodies were diluted 1:1000 with the exception of actin which was diluted 1:3000 in 1×TBST (1×TBS-10×TBS, (Corning, 46-012-CM), 0.05% Tween-20 (P7949) Sigma and 1% BSA. Secondary antibodies used were (a) Li-Cor method-Goat anti-Rabbit (926-3221) and Goat anti-Mouse (926-68020) Li-Cor (b) ECL method: Anti-rabbit IgG, HRP-linked (#7074S), CST.\nCells were pretreated with Compound 569 at 20, 100, 500, or 1000 nM or DMSO for 30 min and then irradiated with 0 or 10 Gy (XRAD 160, Precision X Ray) as shown in FIG. 1. In FIG. 3, cells were pretreated with Compound 569 at 1 μM, ATMi (AZD0156) at 1 μM, DNA-PKi (peposertib) at 1 μM as single agents or DMSO or with ATMi and DNA-PKi in combination at 0.5 micromolar each or at 1 micromolar each for 30 min and then irradiated with 0 or 10 Gy (XRAD 160, Precision X Ray) as shown in FIG. 1. One hour after IR, cells were lysed in RIPA buffer ([…], pH 8.0, 150 mM NaCl, 0.1% SDS, 0.5% sodium deoxycholate, 1% IGEPAL® CA-630 (Sigma, 18896) for 20 min at 4° C. in the presence of protease and phosphatase inhibitor cocktails (Roche, #04693159001 & #04906837001). Cell lysates were centrifuged at 13,200 g for 10 min at 4° C. and supernatants were analyzed for protein content using BCA assay (Pierce™ BCA Protein Assay Kit, cat #23227, ThermoFisher Waltham, MA 02451) and equal amounts of protein/lane were used for subsequent immunoblot analyses. Proteins were denatured by adding NuPAGE LSD Sample Buffer [4×] […]"}}}
{"molecule": "CC(C)NCCOc1ncc(-c2cc3c4c(cnc3cc2F)N(C)C(=O)C42CCC2)cc1NS(C)(=O)=O", "note": "[Compound 569, N-(5-(7′-Fluoro-3′-methyl-2′-oxo-2′,3′-dihydrospiro[cyclobutane-1,1′-pyrrolo[2,3-c]quinolin]-8′-yl)-2-(2-(isopropylamino)ethoxy)pyridin-3-yl)methanesulfonamide]", "values": [{"measurement": "cellular toxicity in the absence of IR", "setting": "A549 cells; 5-h exposure", "value": "without evidence of cellular toxicity"}, {"measurement": "radiosensitization", "setting": "A549 cells; 5-h exposure, 500 and 1000 nM, 0, 2, 4 Gy", "value": "significant degree of radiosensitization"}, {"measurement": "Clonogenic survival ratio 0 Gy", "setting": "A549 cells; 569 500 nM", "value": 1.000}, {"measurement": "Clonogenic survival ratio 2 Gy", "setting": "A549 cells; 569 500 nM", "value": 0.0780}, {"measurement": "Fold 2 Gy", "setting": "A549 cells; 569 500 nM", "value": 9.3}, {"measurement": "Clonogenic survival ratio 4 Gy", "setting": "A549 cells; 569 500 nM", "value": 0.0044}, {"measurement": "Fold 4 Gy", "setting": "A549 cells; 569 500 nM", "value": 64}, {"measurement": "% survival @ 0 Gy w/out IR", "setting": "A549 cells; 569 500 nM", "value": 110, "unit": "%"}, {"measurement": "Clonogenic survival ratio 0 Gy", "setting": "A549 cells; 569 1000 nM", "value": 1.000}, {"measurement": "Clonogenic survival ratio 2 Gy", "setting": "A549 cells; 569 1000 nM", "value": 0.0520}, {"measurement": "Fold 2 Gy", "setting": "A549 cells; 569 1000 nM", "value": 14}, {"measurement": "Clonogenic survival ratio 4 Gy", "setting": "A549 cells; 569 1000 nM", "value": 0.0015}, {"measurement": "Fold 4 Gy", "setting": "A549 cells; 569 1000 nM", "value": 188}, {"measurement": "% survival @ 0 Gy w/out IR", "setting": "A549 cells; 569 1000 nM", "value": 103, "unit": "%"}, {"measurement": "phosphorylation of TBK1", "setting": "TBK1", "value": "more potent activator of TBK1 phosphorylation than either of the single target kinase inhibitors"}]}
